This is an account of results in patent US8648066B2 (Exelixis, Inc., priority 2009, dated 2014).

The assay addresses mTOR/GbL/Raptor (mTORC1) (Homo sapiens, UniProt P42345). Nature of the assay: mTOR/GbL/Raptor (mTORC1) ELISA assay. The following applies: phosphorylation of 4E-BP1; 0.2 nM mTORC1, 10 μM ATP; read-out: IC50 in this assay (mTORC1 ELISA). In kind it is biochemical. In outline:
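ELISA read-out: phospho-4E-BP1 captured on Ni-chelate plates and detected with anti-phospho antibody plus HRP-anti-IgG luminescence. The kinase step ran 120 min at ambient temperature with 0.2 nM human mTORC1, 10 µM ATP, 50 nM His-4E-BP1, 10 mM MnCl2, pH 7.2 HEPES.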

The term IC50 denotes the midpoint of a concentration-inhibition curve. Regarding `CC1(C)CCc2ncnc(N3CCOc4ccc(-c5cnc(N)c(S(=O)(=O)N6CCC(N)CC6)c5)cc4C3)c2C1` [Example 446, 3-[(4-aminopiperidin-1-yl)sulfonyl]-5-[4-(6,6-dimethyl-5,6,7,8-tetrahydroquinazolin-4-yl)-2,3,4,5-tetrahydro-1,4-benzoxazepin-7-yl]pyridin-2-amine], the IC50 fell in the range of 10 to 50 nM. Then `CCNc1nc2ccc(-c3ccc4c(c3)CN(c3nc(C)nc5cc(OC)ccc35)CCO4)cc2[nH]1` [Example 237, N-ethyl-6-{4-[2-methyl-7-(methyloxy)quinazolin-4-yl]-2,3,4,5-tetrahydro-1,4-benzoxazepin-7-yl}-1H-benzimidazol-2-amine], with 250 to 1000 nM. Consider `CC1(C)CCc2ncnc(N3CCOc4ccc(-c5cnc(N)c(S(=O)(=O)NC[C@H]6CCCN6)c5)cc4C3)c2C1` [Example 382, 2-amino-5-[4-(6,6-dimethyl-5,6,7,8-tetrahydrquinazolin-4-yl)-2,3,4,5-tetrahydro-1,4-benzoxazepin-7-yl]-N-[(2R)-pyrrolidin-2-ylmethyl]pyridine-3-sulfonamide], for which the IC50 lay in the range of 10 to 50 nM. Consider `CC1(C)CCc2ncnc(N3CCOc4ccc(-c5cnc(N)c(S(=O)(=O)N6CC[C@@H](N)C6)c5)cc4C3)c2C1` [Example 449, 3-{[(3R)-3-aminpyrrolidin-1-yl]sulfonyl}-5-[4-(6,6-dimethyl-5,6,7,8-tetrahydroquinazolin-4-yl)-2,3,4,5-tetrahydro-1,4-benzoxazepin-7-yl]pyridin-2-amine], for which the IC50 was ≤ 10 nM. Consider `COCCOc1cc(-c2ccc3c(c2)CN(c2nc(CN(C)C)nc4c2CC(C)(C)CC4)CCO3)ccc1OC` [Example 648, 1-(6,6-dimethyl-4-{7-[4-(methyloxy)-3-{[2-(methyloxy)ethyl]oxy}phenyl]-2,3-dihydro-1,4-benzoxazepin-4(5H)-yl}-5,6,7,8-tetrahydroquinazolin-2-yl)-N,N-dimethylmethanamine], for which the IC50 lay within 250 to 1000 nM. Regarding `CN(C)CCNS(=O)(=O)c1cc(-c2ccc3c(c2)CN(c2ncnc4c2CC(C)(C)CC4)CCO3)cnc1N` [Example 423, 2-amino-N-[2-(dimethylamino)ethyl]-5-[4-(6,6-dimethyl-5,6,7,8-tetrahydroquinazolin-4-yl)-2,3,4,5-tetrahydro-1,4-benzoxazepin-7-yl]pyridine-3-sulfonamide], the IC50 fell in the range of 50 to 250 nM. Then `Cc1nc2ncc(-c3ccc4c(c3)CN(c3nc(CN(C)C)nc5c3CC(C)(C)CC5)CCO4)cc2[nH]1` [Example 353, 1-{6,6-dimethyl-4-[7-(2-methyl-1H-imidazo[4,5-b]pyridin-6-yl)-2,3-dihydro-1,4-benzoxazepin-4(5H)-yl]-5,6,7,8-tetrahydroquinazolin-2-yl}-N,N-dimethylmethanamine], with ≤ 10 nM; and `CC1(C)CCc2ncnc(N3CCOc4ccc(-c5cnc(C#N)c(NS(C)(=O)=O)c5)cc4C3)c2C1` [Example 625, N-{2-cyano-5-[4-(6,6-dimethyl-5,6,7,8-tetrahydroquinazolin-4-yl)-2,3,4,5-tetrahydro-1,4-benzoxazepin-7-yl]pyridin-3-yl}methanesulfonamide], with 50 to 250 nM; and `Cc1nc2ncc(-c3ccc4c(c3)CN(c3ncnc5c3CC[C@H](C)C5)CCO4)cc2[nH]1` [Example 560, 7-(2-methyl-1H-imidazo[4,5-b]pyridin-6-yl)-4-[(7S)-7-methyl-5,6,7,8-tetrahydroquinazolin-4-yl]-2,3,4,5-tetrahydro-1,4-benzoxazepine], with 50 to 250 nM.

With `CN(C)Cc1nc2c(c(N3CCOc4ccc(-c5ccc(N)nc5)cc4C3)n1)CC(C)(C)CC2` [Example 509, 5-(4-{2-[(dimethylamino)methyl]-6,6-dimethyl-5,6,7,8-tetrahydroquinazolin-4-yl}-2,3,4,5-tetrahydro-1,4-benzoxazepin-7-yl)pyridin-2-amine], the IC50 lay within 50 to 250 nM. Then `CN(C)Cc1nc2c(c(N3CCOc4ccc(-c5cnc6nc(C7CC7)[nH]c6c5)cc4C3)n1)CC(C)(C)CC2` [Example 339, 1-{4-[7-(2-cyclopropyl-1H-imidazo[4,5-b]pyridin-6-yl)-2,3-dihydro-1,4-benzoxazepin-4(5H)-yl]-6,6-dimethyl-5,6,7,8-tetrahydroquinazolin-2-yl}-N,N-dimethylmethanamine], with ≤ 10 nM. In the case of `CC1=CC(C)(C)Cc2c1ncnc2N1CCOc2ccc(-c3cnc(N)c(S(=O)(=O)N[C@@H]4CCN(C)C4)c3)cc2C1` [Example 422, 2-amino-N-[(3R)-1-methylpyrrolidin-3-yl]-5-[4-(6,6,8-trimethyl-5,6-dihydroquinazolin-4-yl)-2,3,4,5-tetrahydro-1,4-benzoxazepin-7-yl]pyridine-3-sulfonamide], the IC50 lay within 50 to 250 nM.

On to `CC[C@H]1CCc2c(ncnc2N2CCOc3ccc(-c4cnc(N)c(S(=O)(=O)N5CC[C@@H](N)C5)c4)cc3C2)C1` [Example 451, 3-{[(3R)-3-aminopyrrolidin-1-yl]sulfonyl}-5-{4-[(7S)-7-ethyl-5,6,7,8-tetrahydroquinazolin-4-yl]-2,3,4,5-tetrahydro-1,4-benzoxazepin-7-yl}pyridin-2-amine], for which the IC50 lay within 10 to 50 nM.

Consider `COC(=O)Nc1nc2ccc(-c3ccc4c(c3)CN(c3ccnc5ccccc35)CCO4)cc2[nH]1` [Example 114, methyl [6-(4-quinolin-4-yl-2,3,4,5-tetrahydro-1,4-benzoxazepin-7-yl)-1H-benzimidazol-2-yl]carbamate], for which the IC50 lay in the range of 250 to 1000 nM. Then `CCNc1nc2ccc(-c3ccc4c(c3)CN(c3ncnc(Nc5ccc(OC)cc5)c3C)CCO4)cc2[nH]1` [Example 640, N-ethyl-6-[4-(5-methyl-6-{[4-(methyloxy)phenyl]amino}pyrimidin-4-yl)-2,3,4,5-tetrahydro-1,4-benzoxazepin-7-yl]-1H-benzimidazol-2-amine], with 250 to 1000 nM; and `Cc1ncnc(N2CCOc3ccc(-c4cc5[nH]c(N)nc5cn4)cc3C2)c1Cc1ccc(F)cc1` [Example 216, 6-(4-{5-[(4-fluorophenyl)merthyl]-6-methylpyrimidin-4-yl}-2,3,4,5-tetrahydro-1,4-benzoxazepin-7-yl)-1H-imidazo[4,5-c]pyridin-2-amine], with 10 to 50 nM. For `Cc1nc2cc(-c3ccc4c(c3)CN(c3nc([C@H]5CCCN5)nc5c3CC(C)(C)CC5)CCO4)ccc2[nH]1` [Example 505, 4-{6,6-dimethyl-2-[(2R)-pyrrolidin-2-yl]-5,6,7,8-tetrahydroquinazolin-4-yl}-7-(2-methyl-1H-benzimidazol-5-yl)-2,3,4,5-tetrahydro-1,4-benzoxazepine], the IC50 was 10 to 50 nM. Then `CCNc1nc2ccc(-c3ccc4c(c3)CN(c3nc(C)nc5cc(OC)c(OC)cc35)CCO4)cc2[nH]1` [Example 271, N-ethyl-6-{4-[2-methyl-6,7-bis(methyloxy)quinazolin-4-yl]-2,3,4,5-tetrahydro-1,4-benzoxazepin-7-yl}-1H-benzimidazol-2-amine], with 250 to 1000 nM; and `CNS(=O)(=O)c1cc(-c2ccc3c(c2)CN(c2ncnc(C)c2Cc2ccc(F)cc2)CCO3)cnc1N` [Example 363, 2-amino-5-(4-{5-[(4-fluorophenyl)methyl]-6-methylpyrimidin-4-yl}-2,3,4,5-tetrahydro-1,4-benzoxazepin-7-yl)-N-methylpyridine-3-sulfonamide], with 10 to 50 nM.
